Source: patent US7786165B2, “Aminophenylpropanoic acid derivative” (Takeda Pharmaceutical Company Limited, priority 2004, dated 2010)
Where a name gives a salt, the structure may show the parent alone.

Target: T1, human GPR40 (Homo sapiens, UniProt O14842)
T1 construct: expressed in transfected cells; host or cells: CHO cell line stably expressing human GPR40
Experiment: Determination of EC50 for human GPR40: intracellular calcium change by FLIPR in CHO cells stably expressing human GPR40
Type: cell-based
Conditions: CHO cell line stably expressing human GPR40, changes in intracellular calcium concentration, Fluo3-AM, read-out: EC50 (Receptor Function Modulating Action On GPR40)
Procedure: Determination of EC50 of the Compound of the Present Invention for Human GPR40
For determination of EC50, CHO cell line that stably expressed human GPR40 was used. Unless otherwise indicated, the CHO cell line was cultured using α-MEM medium (Invitrogen) containing 10% fetal calf serum (Invitrogen).
The cells cultured to nearly confluent were rinsed with PBS (Invitrogen) on the previous day of the assay, peeled off with 0.05% Trypsin-EDTA solution (Invitrogen) and recovered by centrifugation. The number of the obtained cells was counted, and the cells were diluted such that 3×10^5 cells were contained per 1 mL of the medium, dispensed to a black welled 96-well plate (coster) by 100 μL per well and cultured overnight in a CO2 incubator. Various test compounds were added to the CHO cells thus prepared, and the changes in the intracellular calcium concentration were measured using FLIPR (Molecular Device). The below-mentioned pre-treatment was applied to measure changes in the intracellular calcium concentration by FLIPR.
First, an assay buffer for adding a fluorescence dye Fluo3-AM (DOJIN) to the cells, or for washing the cells immediately before FLIPR assay was prepared. To a solution of HBSS (Invitrogen, 1000 mL) to which 1M HEPES (pH 7.4, DOJIN, 20 mL) added (hereinafter HBSS/HEPES solution) was added a solution (10 mL) obtained by dissolving probenecid (Sigma, 710 mg) in 1N NaOH (5 mL), and adding and mixing an HBSS/HEPES solution (5 mL), and the resulting solution was used as an assay buffer. Next, Fluo3-AM (50 μg) was dissolved in dimethylsulfoxide (Wako, 21 μL), and an equivalent amount of 20% pluronic acid (Molecular Probes) was added and mixed. The solution was added to the assay buffer (10.6 mL) supplemented with fetal vovine serum (105 μL) to give a fluorescence dye solution. The medium of the CHO cells inoculated to the black welled 96-well plate on the previous day of assay was removed, the fluorescence dye solution was immediately dispensed by 100 μL per well and the cells were cultured in a CO2 incubator for 1 hr to allow intake of the fluorescence dye by the cells. The cells after the culture were washed with the above-mentioned assay buffer and set on FLIPR. The test compound was diluted with dimethylsulfoxide in advance, dispensed to polypropylene 96-well plate (sample plate) by […], and cryopreserved at −20° C. To the thawed sample plate was added an assay buffer containing 0.015% CHAPS (DOJIN) by 198 μL, and simultaneously set on FLIPR together with the cell plate. After the aforementioned pre-treatment, changes in the intracellular calcium concentration upon addition of various test compounds as measured by FLIPR. Based on the results, a dose-response curve of each test compound was formed and EC50 was calculated.

T1 sequence (O14842 whole entry): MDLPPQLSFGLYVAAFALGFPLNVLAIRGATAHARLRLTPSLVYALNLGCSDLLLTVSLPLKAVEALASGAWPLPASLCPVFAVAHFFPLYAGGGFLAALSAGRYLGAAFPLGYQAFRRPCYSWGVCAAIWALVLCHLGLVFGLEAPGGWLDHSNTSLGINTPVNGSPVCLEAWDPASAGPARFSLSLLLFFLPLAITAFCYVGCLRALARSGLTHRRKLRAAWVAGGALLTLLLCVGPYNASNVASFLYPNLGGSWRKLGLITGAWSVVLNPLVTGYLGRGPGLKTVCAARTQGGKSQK

EC50, < 100 nM:
COc1cccc(Oc2cc(C)c(-c3cccc(CNc4ccc(CCC(=O)O)c(F)c4)c3)c(C)c2)n1 [Example 164, 3-{2-fluoro-4-[({4′-[(6-methoxypyridin-2-yl)oxy]-2′,6′-dimethylbiphenyl-3-yl}methyl)amino]phenyl}propanoic acid dihydrochloride]
CC(C)(C)c1cc(COc2ccccc2)n(Cc2ccc(CNc3ccc(CCC(=O)O)c(F)c3)cc2)n1 [Example 169, 3-{4-[(4-{[3-tert-butyl-5-(phenoxymethyl)-1H-pyrazol-1-yl]methyl}benzyl)amino]-2-fluorophenyl}propanoic acid dimethanesulfonate]
CC(C)(C)c1cc(OCc2ccccc2)n(Cc2ccc(CNc3ccc(CCC(=O)O)c(F)c3)cc2)n1 [Example 171, 3-{4-[(4-{[5-(benzyloxy)-3-tert-butyl-1H-pyrazol-1-yl]methyl}benzyl)amino]-2-fluorophenyl}propanoic acid dimethanesulfonate]
CCOCCS(=O)(=O)c1cc(C)c(-c2cccc(CNc3ccc(CCC(=O)O)c(F)c3)c2)c(C)c1 [Example 184, 3-{4-[({4′-[(2-ethoxyethyl)sulfonyl]-2′,6′-dimethylbiphenyl-3-yl}methyl)amino]-2-fluorophenyl}propanoic acid]
Cc1cc(OCC2(O)CCS(=O)(=O)CC2)cc(C)c1-c1cccc(CNc2ccc(CCC(=O)O)c(F)c2)c1 [Example 188, 3-{2-fluoro-4-[({4′-[(4-hydroxy-1,1-dioxidotetrahydro-2H-thiopyran-4-yl)methoxy]-2′,6′-dimethylbiphenyl-3-yl}methyl)amino]phenyl}propanoic acid]
CCN(CCOc1cc(C)c(-c2cccc(CNc3ccc(CCC(=O)O)c(F)c3)c2)c(C)c1)C(C)=O [Example 200, 3-(4-{[(4′-{2-[acetyl(ethyl)amino]ethoxy}-2′,6′-dimethylbiphenyl-3-yl)methyl]amino}-2-fluorophenyl)propanoic acid methanesulfonate]
Cc1cc(OC2CCS(=O)(=O)CC2)cc(C)c1-c1cccc(CNc2ccc(CCC(=O)O)c(F)c2)c1 [Example 204, 3-{4-[({4′-[(1,1-dioxidotetrahydro-2H-thiopyran-4-yl)oxy]-2′,6′-dimethylbiphenyl-3-yl}methyl)amino]-2-fluorophenyl}propanoic acid methanesulfonate]
O=C(O)CCc1ccc(NC2CCc3cc(OCc4ccccc4)ccc32)cc1 (stereo not shown) [Example 210, 3-(4-{[5-(benzyloxy)-2,3-dihydro-1H-inden-1-yl]amino}phenyl)propanoic acid]
O=C(O)CCc1ccc(NC2CCc3c(Oc4ccccc4)cccc32)cc1 (stereo not shown) [Example 212, 3-{4-[(4-phenoxy-2,3-dihydro-1H-inden-1-yl)amino]phenyl}propanoic acid]
Cc1cccc(C)c1-c1cccc2c1CCC2Nc1ccc(CCC(=O)O)c(F)c1 (stereo not shown) [Example 218, 3-(4-{[4-(2,6-dimethylphenyl)-2,3-dihydro-1H-inden-1-yl]amino}-2-fluorophenyl)propanoic acid]
